# Measurements taken from ChEMBL document CHEMBL5149992, “Discovery, Optimization, and Evaluation of Quinazolinone Derivatives with Novel Linkers as Orally Efficacious Phosphoinositide-3-Kinase Delta Inhibitors for Treatment of Inflammatory Diseases” (J Med Chem, 2021).
# Experiments:
# [1] = target: T1, Phosphatidylinositol 4,5-bisphosphate 3-kinase catalytic subunit alpha isoform (Homo sapiens, UniProt P42336); assay: Inhibition of PI3Kalpha (unknown origin) at 0.1 uM relative to control
# [2] = target: T2, Phosphatidylinositol 4,5-bisphosphate 3-kinase catalytic subunit delta isoform (Homo sapiens, UniProt O00329); assay: Inhibition of PI3Kdelta (unknown origin)
# T2 sequence (O00329 whole entry): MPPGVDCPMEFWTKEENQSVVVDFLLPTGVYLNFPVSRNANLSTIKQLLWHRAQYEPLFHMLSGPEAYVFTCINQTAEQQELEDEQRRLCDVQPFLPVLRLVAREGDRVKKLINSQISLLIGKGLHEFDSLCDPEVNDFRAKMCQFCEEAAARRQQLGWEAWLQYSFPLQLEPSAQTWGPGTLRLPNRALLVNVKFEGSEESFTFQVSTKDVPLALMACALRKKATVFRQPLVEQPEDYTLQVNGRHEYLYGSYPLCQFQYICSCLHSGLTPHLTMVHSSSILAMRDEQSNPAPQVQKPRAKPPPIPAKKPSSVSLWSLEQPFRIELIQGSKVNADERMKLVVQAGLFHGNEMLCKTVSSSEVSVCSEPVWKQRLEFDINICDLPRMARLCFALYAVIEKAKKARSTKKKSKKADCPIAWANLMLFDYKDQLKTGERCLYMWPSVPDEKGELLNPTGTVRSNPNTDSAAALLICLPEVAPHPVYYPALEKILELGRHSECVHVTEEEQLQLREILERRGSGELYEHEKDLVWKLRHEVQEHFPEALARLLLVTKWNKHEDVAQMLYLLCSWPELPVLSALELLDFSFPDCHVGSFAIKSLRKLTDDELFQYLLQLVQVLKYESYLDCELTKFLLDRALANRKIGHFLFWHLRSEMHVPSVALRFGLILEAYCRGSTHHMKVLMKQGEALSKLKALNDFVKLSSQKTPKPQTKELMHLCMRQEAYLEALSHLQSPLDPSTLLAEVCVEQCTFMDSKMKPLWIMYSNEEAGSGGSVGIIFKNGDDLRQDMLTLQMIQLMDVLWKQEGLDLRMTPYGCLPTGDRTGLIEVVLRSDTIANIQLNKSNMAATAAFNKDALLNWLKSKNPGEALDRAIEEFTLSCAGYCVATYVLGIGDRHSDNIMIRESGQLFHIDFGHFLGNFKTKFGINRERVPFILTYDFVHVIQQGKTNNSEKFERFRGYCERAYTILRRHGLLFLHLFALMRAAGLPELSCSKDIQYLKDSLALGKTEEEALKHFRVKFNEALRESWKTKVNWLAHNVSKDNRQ
# [3] = target: T3, Phosphatidylinositol 4,5-bisphosphate 3-kinase catalytic subunit gamma isoform (Homo sapiens, UniProt P48736); assay: Inhibition of PI3Kgamma (unknown origin)
# Target sequence in this assay (P48736 whole entry, canonical isoform): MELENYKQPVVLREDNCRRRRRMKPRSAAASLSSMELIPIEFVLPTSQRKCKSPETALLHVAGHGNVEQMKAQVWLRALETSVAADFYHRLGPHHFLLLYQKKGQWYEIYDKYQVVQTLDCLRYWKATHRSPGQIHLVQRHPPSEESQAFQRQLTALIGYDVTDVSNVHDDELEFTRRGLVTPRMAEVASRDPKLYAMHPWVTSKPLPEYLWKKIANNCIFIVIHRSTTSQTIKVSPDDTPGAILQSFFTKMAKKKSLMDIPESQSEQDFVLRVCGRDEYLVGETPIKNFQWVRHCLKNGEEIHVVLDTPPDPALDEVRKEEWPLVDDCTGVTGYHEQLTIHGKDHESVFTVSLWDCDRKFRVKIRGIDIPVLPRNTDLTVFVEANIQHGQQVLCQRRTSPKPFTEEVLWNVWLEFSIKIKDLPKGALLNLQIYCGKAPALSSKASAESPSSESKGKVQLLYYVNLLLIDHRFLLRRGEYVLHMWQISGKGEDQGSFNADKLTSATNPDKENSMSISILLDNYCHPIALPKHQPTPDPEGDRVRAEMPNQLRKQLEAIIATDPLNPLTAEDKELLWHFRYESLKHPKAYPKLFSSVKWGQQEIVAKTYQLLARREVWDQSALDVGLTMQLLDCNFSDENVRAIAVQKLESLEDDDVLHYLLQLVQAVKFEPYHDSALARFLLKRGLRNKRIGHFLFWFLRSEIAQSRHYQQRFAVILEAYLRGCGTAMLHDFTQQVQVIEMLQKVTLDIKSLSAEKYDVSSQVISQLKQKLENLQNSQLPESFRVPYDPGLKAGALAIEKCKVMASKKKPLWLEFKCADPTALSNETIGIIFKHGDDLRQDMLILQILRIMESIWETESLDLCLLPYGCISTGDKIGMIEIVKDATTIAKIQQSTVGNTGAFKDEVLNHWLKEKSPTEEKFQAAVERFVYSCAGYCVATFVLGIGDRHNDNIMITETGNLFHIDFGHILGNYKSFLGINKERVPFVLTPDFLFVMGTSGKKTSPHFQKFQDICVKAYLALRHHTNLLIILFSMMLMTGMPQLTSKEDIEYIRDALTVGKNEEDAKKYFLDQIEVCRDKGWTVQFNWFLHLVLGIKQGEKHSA
# [4] = target: T4, Phosphatidylinositol 4,5-bisphosphate 3-kinase catalytic subunit delta isoform (Homo sapiens) (UniProt O00329); assay: Inhibition of PI3Kdelta (unknown origin) at 0.1 uM using phosphatidylinositol as substrate incubated for 30 mins in presence of ATP by HTRF based assay relative to control
# T4 sequence (whole entry): T2 sequence (O00329 whole entry)
# [5] = target: T4, Phosphatidylinositol 4,5-bisphosphate 3-kinase catalytic subunit delta isoform (Homo sapiens); assay: Inhibition of PI3Kdelta (unknown origin) at 0.01 uM using phosphatidylinositol as substrate incubated for 30 mins in presence of ATP by HTRF based assay relative to control
# [6] = human, microsomes, 10 µM
# in vitro = conditions: human, liver microsomes
# [7] = target: T5, Phosphatidylinositol 4,5-bisphosphate 3-kinase catalytic subunit beta isoform (Homo sapiens, UniProt P42338); assay: Inhibition of PI3Kbeta (unknown origin) at 0.1 uM relative to control
# Target sequence in this assay (P42338 whole entry, looked up, canonical isoform): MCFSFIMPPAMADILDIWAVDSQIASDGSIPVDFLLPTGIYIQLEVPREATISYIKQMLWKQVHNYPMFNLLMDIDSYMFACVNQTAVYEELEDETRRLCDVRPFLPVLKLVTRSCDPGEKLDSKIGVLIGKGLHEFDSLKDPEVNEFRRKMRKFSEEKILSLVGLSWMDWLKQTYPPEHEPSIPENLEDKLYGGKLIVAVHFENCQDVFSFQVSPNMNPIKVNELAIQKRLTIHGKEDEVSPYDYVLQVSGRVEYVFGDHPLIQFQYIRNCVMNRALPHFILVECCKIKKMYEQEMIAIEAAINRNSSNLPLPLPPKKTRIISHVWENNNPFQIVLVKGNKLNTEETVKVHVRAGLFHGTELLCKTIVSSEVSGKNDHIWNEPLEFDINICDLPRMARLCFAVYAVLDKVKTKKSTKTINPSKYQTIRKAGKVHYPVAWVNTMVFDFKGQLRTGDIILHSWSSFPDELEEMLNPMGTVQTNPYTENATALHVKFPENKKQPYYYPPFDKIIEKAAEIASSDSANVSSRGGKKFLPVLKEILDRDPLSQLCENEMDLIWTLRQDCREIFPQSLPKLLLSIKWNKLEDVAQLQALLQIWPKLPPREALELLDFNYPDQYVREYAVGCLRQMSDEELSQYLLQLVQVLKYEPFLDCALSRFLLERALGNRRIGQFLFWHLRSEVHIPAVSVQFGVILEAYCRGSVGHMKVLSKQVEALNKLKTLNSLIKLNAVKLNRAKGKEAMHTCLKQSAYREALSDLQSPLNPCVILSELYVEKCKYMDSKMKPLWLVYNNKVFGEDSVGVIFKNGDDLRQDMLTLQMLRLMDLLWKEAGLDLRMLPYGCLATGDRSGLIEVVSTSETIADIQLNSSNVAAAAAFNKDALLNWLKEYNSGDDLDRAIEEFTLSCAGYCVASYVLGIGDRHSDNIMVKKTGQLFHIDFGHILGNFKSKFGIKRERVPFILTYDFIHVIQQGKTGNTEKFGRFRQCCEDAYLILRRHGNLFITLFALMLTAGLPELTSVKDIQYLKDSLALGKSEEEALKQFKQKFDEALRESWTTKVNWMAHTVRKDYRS
# [8] = target: T1, Phosphatidylinositol 4,5-bisphosphate 3-kinase catalytic subunit alpha isoform; assay: Inhibition of PI3Kalpha (unknown origin)
# [9] = target: T5, Phosphatidylinositol 4,5-bisphosphate 3-kinase catalytic subunit beta isoform; assay: Inhibition of PI3Kbeta (unknown origin)
# Target sequence in this assay (P42338 whole entry, canonical isoform): as the sequence (P42338 whole entry, looked up, canonical isoform) above
# [10] = target: T3, Phosphatidylinositol 4,5-bisphosphate 3-kinase catalytic subunit gamma isoform; assay: Inhibition of PI3Kgamma (unknown origin) at 0.1 uM relative to control
# Target sequence in this assay (P48736 whole entry, looked up, canonical isoform): as the sequence (P48736 whole entry, canonical isoform) above
# T1 sequence (P42336 whole entry, canonical isoform): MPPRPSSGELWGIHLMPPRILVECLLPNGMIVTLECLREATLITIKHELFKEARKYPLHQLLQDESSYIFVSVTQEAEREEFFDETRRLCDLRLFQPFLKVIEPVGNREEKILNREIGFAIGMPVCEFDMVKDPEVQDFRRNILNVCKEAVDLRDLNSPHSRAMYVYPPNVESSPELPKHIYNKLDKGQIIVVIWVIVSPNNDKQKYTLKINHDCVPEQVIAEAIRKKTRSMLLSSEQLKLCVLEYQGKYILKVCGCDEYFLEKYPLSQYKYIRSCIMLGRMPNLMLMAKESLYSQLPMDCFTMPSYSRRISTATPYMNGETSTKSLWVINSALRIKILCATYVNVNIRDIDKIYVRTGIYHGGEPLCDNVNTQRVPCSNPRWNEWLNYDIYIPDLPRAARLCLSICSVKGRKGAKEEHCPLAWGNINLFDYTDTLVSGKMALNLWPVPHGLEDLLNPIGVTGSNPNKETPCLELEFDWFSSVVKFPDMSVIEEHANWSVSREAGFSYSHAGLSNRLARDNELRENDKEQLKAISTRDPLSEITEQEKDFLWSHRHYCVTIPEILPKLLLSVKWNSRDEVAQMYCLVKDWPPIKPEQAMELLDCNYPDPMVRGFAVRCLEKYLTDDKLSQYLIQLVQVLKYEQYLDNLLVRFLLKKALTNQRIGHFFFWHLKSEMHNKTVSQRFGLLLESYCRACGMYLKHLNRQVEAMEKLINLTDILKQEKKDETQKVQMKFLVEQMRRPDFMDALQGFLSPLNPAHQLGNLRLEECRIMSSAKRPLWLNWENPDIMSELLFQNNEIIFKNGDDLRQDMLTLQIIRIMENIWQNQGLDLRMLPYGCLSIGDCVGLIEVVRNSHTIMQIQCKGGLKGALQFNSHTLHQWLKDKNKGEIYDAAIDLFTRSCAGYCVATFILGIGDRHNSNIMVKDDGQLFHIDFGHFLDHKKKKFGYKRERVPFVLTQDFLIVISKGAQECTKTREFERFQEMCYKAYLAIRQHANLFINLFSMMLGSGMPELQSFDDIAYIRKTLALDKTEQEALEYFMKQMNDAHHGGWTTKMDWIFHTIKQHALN
SMILES,IC50 [2],inhibition [4],inhibition [5],CLH [6],"half-life at 60 h, 10 µM (in vitro)",also measured
C[C@H]1CC[C@@H](c2nc3cccc(Cl)c3c(=O)n2-c2cccc(F)c2)N1c1ncnc2[nH]ccc12,30 nM,–,–,–,–,inhibition [1]: 19%; IC50 [3]: 74 nM
O=c1c2c(Cl)cccc2nc([C@@H]2C[C@@H]3CCCC[C@@H]3N2c2ncnc3[nH]ncc23)n1-c1ccccc1,–,-3%,-3%,–,–,–
O=c1c2c(Cl)cccc2nc([C@@H]2C[C@@H]3CCCC[C@@H]3N2c2ncnc3[nH]ccc23)n1-c1ccccc1,–,3%,1%,–,–,–
C=CCO[C@@H]1C[C@@H](c2nc3cccc(Cl)c3c(=O)n2-c2ccccc2)N(c2ncnc(N)c2C#N)C1,67 nM,47%,17%,767 mL/min/g,1.8 min,–
O=c1c2c(Cl)cccc2nc([C@@H]2C[C@@H]3CCCC[C@@H]3N2c2ncnc3[nH]cnc23)n1-c1ccccc1,–,8%,0%,–,–,–
C[C@H]1CC[C@@H](c2nc3cccc(Cl)c3c(=O)n2N2CCOCC2)N1c1ncnc(N)c1C#N,10 nM,–,–,12.6 mL/min/g,110 min,inhibition [1]: 5%; inhibition [7]: 45%; IC50 [3]: 295 nM
O=c1c2c(Cl)cccc2nc([C@@H]2CC3(CC3)CN2c2ncnc3[nH]ccc23)n1-c1ccccc1,–,8%,2%,–,–,–
Nc1nc(N2[C@H](c3nc4cccc(Cl)c4c(=O)n3-c3ccccc3)C[C@@H]3CCCC[C@@H]32)c2nc[nH]c2n1,–,6%,2%,–,–,–
C[C@H]1CC[C@@H](c2nc3cccc(Cl)c3c(=O)n2-c2ccccc2)N1c1ncnc(N)c1C#N,5 nM,–,–,22.6 mL/min/g,61.3 min,IC50 [3]: 144 nM; IC50 [8]: > 1000 nM; IC50 [9]: 968 nM
C=CCO[C@@H]1C[C@@H](c2nc3cccc(Cl)c3c(=O)n2-c2ccccc2)N(c2nc(N)nc3[nH]cnc23)C1,–,42%,7%,–,–,–
C[C@H]1CC[C@@H](c2nc3cccc(Cl)c3c(=O)n2-c2cccnc2)N1c1ncnc(N)c1C#N,4 nM,–,–,13.4 mL/min/g,103 min,inhibition [1]: 18%; inhibition [7]: 45%; IC50 [3]: 351 nM
O=c1c2c(Cl)cccc2nc([C@@H]2CC(F)(F)CN2c2ncnc3[nH]cnc23)n1-c1ccccc1,–,34%,4%,–,–,–
N#Cc1cccnc1N1[C@H](c2nc3cccc(Cl)c3c(=O)n2-c2ccccc2)C[C@@H]2CCCC[C@@H]21,–,0%,-1%,–,–,–
Nc1ccnc(N2[C@H](c3nc4cccc(Cl)c4c(=O)n3-c3ccccc3)C[C@@H]3CCCC[C@@H]32)n1,–,-3%,-1%,–,–,–
O=c1c2c(Cl)cccc2nc([C@@H]2CC3(CC3)CN2c2ncnc3[nH]cnc23)n1-c1ccccc1,–,32%,3%,–,–,–
C[C@H]1CC[C@@H](c2nc3cccc(Cl)c3c(=O)n2-c2ccccc2)N1c1nc(N)nc2[nH]cnc12,25 nM,–,–,3.8 mL/min/g,365 min,inhibition [1]: 22%; inhibition [7]: 69%; IC50 [3]: 38 nM
O=c1c2c(Cl)cccc2nc([C@@H]2CC(F)(F)CN2c2ncnc3[nH]ccc23)n1-c1ccccc1,–,26%,4%,–,–,–
C[C@H]1CC[C@@H](c2nc3cccc(Cl)c3c(=O)n2-c2cccc(F)c2)N1c1ncnc(N)c1C#N,3 nM,–,–,10.4 mL/min/g,133 min,IC50 [3]: 199 nM; IC50 [8]: > 1000 nM; IC50 [9]: > 1000 nM
N#Cc1c(N)ncnc1N1[C@H](c2nc3cccc(Cl)c3c(=O)n2-c2cccc(F)c2)C[C@@H]2CCCC[C@@H]21,34 nM,–,–,10 mL/min/g,139 min,inhibition [1]: 4%; inhibition [10]: 5%; inhibition [7]: 17%

SMILES,IC50 [2],inhibition [4],inhibition [5],CLH [6],"half-life at 60 h, 10 µM (in vitro)",also measured
Nc1nc(N2CC3(CC3)C[C@H]2c2nc3cccc(Cl)c3c(=O)n2-c2ccccc2)c2nc[nH]c2n1,–,44%,8%,–,–,–
Nc1nc(N2CCC[C@H]2c2nc3cccc(Cl)c3c(=O)n2-c2ccccc2)c2nc[nH]c2n1,–,–,–,21.8 mL/min/g,63.6 min,–
Cc1ccnc(N2[C@H](c3nc4cccc(Cl)c4c(=O)n3-c3ccccc3)C[C@@H]3CCCC[C@@H]32)n1,–,-1%,-1%,–,–,–
N#Cc1c(N)ncnc1N1[C@H](c2nc3cccc(Cl)c3c(=O)n2N2CCOCC2)C[C@@H]2CCCC[C@@H]21,14 nM,–,–,11 mL/min/g,126 min,inhibition [1]: 24%; inhibition [10]: 5%; inhibition [7]: 43%
N#Cc1c(N)ncnc1N1[C@H](c2nc3cccc(F)c3c(=O)n2-c2cc(F)cc(F)c2)C[C@@H]2CCCC[C@@H]21,305 nM,–,–,2.4 mL/min/g,578 min,IC50 [3]: > 1000 nM; IC50 [8]: > 1000 nM; IC50 [9]: > 1000 nM
C=C1C[C@@H](c2nc3cccc(Cl)c3c(=O)n2-c2ccccc2)N(c2ncnc3[nH]cnc23)C1,–,75%,28%,–,–,–
C=C1C[C@@H](c2nc3cccc(Cl)c3c(=O)n2-c2ccccc2)N(c2nc(N)nc3[nH]cnc23)C1,–,96%,52%,–,–,–
O=c1c2c(Cl)cccc2nc([C@@H]2C[C@@H]3CCCC[C@@H]3N2c2nc(Cl)nc3[nH]cnc23)n1-c1ccccc1,–,1%,-1%,–,–,–
C=C1C[C@@H](c2nc3cccc(Cl)c3c(=O)n2-c2ccccc2)N(c2ncnc(N)c2C#N)C1,3 nM,102%,79%,103.8 mL/min/g,13.4 min,IC50 [3]: 250 nM; IC50 [8]: > 1000 nM; IC50 [9]: 819 nM
C[C@H]1CC[C@@H](c2nc3cccc(Cl)c3c(=O)n2-c2cccc(F)c2)N1c1nc(N)nc2[nH]cnc12,9 nM,–,–,–,–,inhibition [1]: 42%; inhibition [7]: 43%; IC50 [3]: 9 nM
C=C1C[C@@H](c2nc3cccc(Cl)c3c(=O)n2-c2ccccc2)N(c2ncnc3[nH]ccc23)C1,–,59%,12%,–,–,–
Nc1nc(N2CC(F)(F)C[C@H]2c2nc3cccc(Cl)c3c(=O)n2-c2ccccc2)c2nc[nH]c2n1,–,50%,11%,–,–,–
N#Cc1c(N)ncnc1N1CC2(CC2)C[C@H]1c1nc2cccc(Cl)c2c(=O)n1-c1ccccc1,20 nM,83%,23%,27.6 mL/min/g,50.2 min,IC50 [3]: 655 nM; IC50 [8]: > 1000 nM; IC50 [9]: > 1000 nM
N#Cc1c(N)ncnc1N1[C@H](c2nc3cccc(Cl)c3c(=O)n2-c2cc(F)cc(F)c2)C[C@@H]2CCCC[C@@H]21,142 nM,–,–,< 12 mL/min/g,> 120 min,IC50 [3]: > 1000 nM; IC50 [8]: > 1000 nM; IC50 [9]: > 1000 nM
C=CCO[C@@H]1C[C@@H](c2nc3cccc(Cl)c3c(=O)n2-c2ccccc2)N(c2ncnc3[nH]ccc23)C1,–,7%,2%,–,–,–
C=CCO[C@@H]1C[C@@H](c2nc3cccc(Cl)c3c(=O)n2-c2ccccc2)N(c2ncnc3[nH]cnc23)C1,–,8%,1%,–,–,–
O=c1c2c(Cl)cccc2nc([C@@H]2C[C@@H]3CCCC[C@@H]3N2c2nccc(Cl)n2)n1-c1ccccc1,–,-2%,-2%,–,–,–
N#Cc1c(N)ncnc1N1[C@H](c2nc3cccc(Cl)c3c(=O)n2-c2cccnc2)C[C@@H]2CCCC[C@@H]21,50 nM,–,–,5.4 mL/min/g,257 min,inhibition [1]: 17%; inhibition [10]: 3%; inhibition [7]: 17%
